Assay results: patent US6306392A, “Composition comprising a carnitine and glutathione, useful to increase the absorption of glutathione and synergize its effects” (Sigma-Tau Healthscience S.p.A., priority 1999, dated 2001)

Key:
[1] = test system: CCl4-intoxicated liver cell cultures; experiment: Carbon tetrachloride (CCl4) intoxication tests on isolated rat liver cells; format: cell-based; details: for Toxic effects of carbon tetrachloride (in words): CCl4 10 mmol.L^-1
Source text: The cells used in these tests were isolated rat liver cells after perfusion with collagenase according to the method described by Seglen (Seglen F. O., Method Cell. Biol. Chem. 264:4747, 1989). Approximately 4-6×10^8 viable liver cells were collected, calculated by exclusion of non-viable cells by means of trypan blue.
The cells thus isolated were suspended in 25 cm^2 plastic receptacles in the presence of antibiotics and 10% inactivated fetal calf serum. To the cell suspension thus obtained was added CCl4 (10 mmol.L^-1), glutathione (GSH 20 mg.L^-1), propionyl L-carnitine (100 mg.L^-1) or glutathione combined with propionyl L-carnitine. After a 4-h incubation the percentage of dead cells was estimated by release of lactate dehydrogenase, as described by Casini et al. (Casini et al., J. Biol. Chem., 257:6721, 1982).
The cytological examination of the liver cells was done under both the light and electron microscope after fixation in 3% formalin and paraffin for light microscopy and 3% glutaraldehyde and 1% osmium tetroxide for electron microscopy.

[2] = test system: glutathione (GSH) concentration; experiment: Effects on glutathione (GSH) concentration in young and elderly rats; format: in vivo
Experimental: Since the metabolic and enzymatic activity of glutathione is known to be reduced in elderly rats and this reduction is regarded as one of the causes of ageing, the effect of the administration of the new composition or its individual components on glutathione concentrations in the plasma and liver of young and elderly rats was evaluated.
For this test two different groups of rats were used: young rats (2-3 months) and elderly rats (8-10 months). The glutathione (GSH) concentration was calculated in both groups according to the technique described by Moron (Moron M. S., Biochem. Biophys. Acta, 582:67, 1979) both before the start of the test and after 15 days' daily administration of propionyl L-carnitine (100 mg/kg), glutathione (50 mg/kg), propionyl L-carnitine with glutathione or with yeast containing 10% glutathione (500 mg/kg), amino acids (500 mg/kg) or the combination according to the invention.

[3] = test system: increase in liver triglycerides induced by CCl4; experiment: Carbon tetrachloride-induced liver intoxication tests (liver triglycerides); format: in vivo; details: rats, CCl4 1 ml.kg^-1 i.p. (20% in olive oil), treated three consecutive days before
Experimental: Another indicator of CCl4 toxicity in the liver is provided by the increased hepatic concentration of triglycerides.
The CCl4 intoxication was induced by giving fasting rats an intraperitoneal injection of 1 ml.kg^-1 of a suspension of 20% CCl4 in olive oil. Prior to CCl4 intoxication the rats were treated for three consecutive days with glutathione (G=50 mg/kg), or with propionyl L-carnitine (PC=100 mg/kg), or with yeast containing 10% glutathione (YG=500 mg/kg), or with a combination of amino acids (AA=glutamic acid 50 mg, cysteine 25 mg, glycine 50 mg, magnesium 5 mg). or with the complete combination CC (CC=PC+G+AA), or with the complete yeast combination CYC (CYC=PC+YG+AA). After administration of CCl4, the livers were excised from the decapitated animals and were used to measure the triglyceride concentration according to the method described by Donabedian (Donabedian R. K., Clin. Chem., 20:632, 1974).

[4] = test system: hypertriglyceridaemia induced in the rat; experiment: Protection against experimental hypertriglyceridaemia (fructose) in the rat; format: in vivo; details: fructose 3 g/kg oral; for Hypertriglyceridaemia (blood triglycerides): five hours after, oral treatment three days before and three hours after
Source text: The method used for this test was that described by Carlson (Carlson L. A. V., J. Atheroscl. Res., 8:667, 1968) and modified as described in Atherosclerosis, 16:349, 1972. According to this test oral administration of 3 g/kg of fructose in the rat induces a substantial increase in both liver and serum triglycerides five hours after administration.
The aim of this test was to assess whether the administration of the components of the composition according to the invention, when used alone or in combination, were capable of leading to a reduction in this triglyceride abnormality which is regarded as underlying severe liver dysfunctions as well as atherosclerosis.
To this end, various groups of rats were treated with glutathione (G=50 mg/kg), with propionyl L-carnitine (PC=50 mg/kg), or with yeast containing 10% glutathione (YG=500 mg/kg), or with an amino acid mixture (AA=glutamic acid 50 mg/kg, cysteine 25 mg/kg, glycine 100 mg/kg+magnesium 5 mg/kg), or with a combination of these various components (at the same doses) without yeast (CC) or with yeast (CYC). The treatment was given orally on the three days preceding fructose administration and for three hours after its administration. Five hours after fructose administration all animals were sacrificed and blood samples were used to assay triglycerides according to the method described by Donabedian (Donabedian R. K., Clin. Chem., 20:632, 1974).

[5] = test system: glutathione-depleted rats; experiment: Glutathione uptake and concentration in blood of glutathione-depleted (DEM) animals; format: in vivo, Sprague-Dawley male rats; details: rats depleted with diethylmaleate (DEM) 1 cc/kg i.p.; oral treatment half an hour after; measured 4 h after
Experimental: To this end, the glutathione content in the blood of a group of Sprague-Dawley male rats was reduced by means of the administration of diethylmaleate (DEM)a depletor of glutathione, according to the technique described by Plummer (Plummer J., Chemical depletion of glutathione "in vivo", Methods in Enzymology, 77:50, 1981). DEM was administered intraperitoneally to fasting rats at the dose of 1 cc/kg. Half an hour after injection of diethylmaleate, glutathione alone (50 mg/kg), or yeast containing 10% glutathione (500 mg/kg), or 50 mg/kg of glutathione together with 500 mg of yeast not containing glutathione were administered orally. Another group of rats received glutathione amino acid precursors (glutamic acid 50 mg/kg, glycine 50 mg/kg, cysteine 50 mg/kg, magnesium 10 mg/kg) or the complete combination according to the invention at the same doses as described here above.
After four hours blood samples were taken from the animals thus treated and the plasma glutathione concentration was measured.

[6] = test system: acetaminophen-induced mortality; experiment: Acetaminophen (paracetamol) induced toxicity tests; format: in vivo; details: mice; for Protection against the mortality induced by acetaminophen (in words): acetaminophen 600 mg/kg
Experimental: Various groups of male mice received oral administrations of 600 mg/kg acetaminophen, which is a dose sufficient to cause death within 24 hours in 50% of the animals thus treated.
At the same time as the acetaminophen administration, one group of animals (group G) were administered glutathione (G) and a second (group YG) were administered yeast containing 10% glutathione (YG); a third group (group PC) were administered propionyl L-carnitine (PC); a fourth group (group AA) were administered a combination of glutamic acid, cysteine, glycine and magnesium (AA); a fifth group (group CC) were administered a first combination according to the invention, called the "complete combination" (CC), consisting of PC+G+AA, while a sixth group (group CYC) were administered a second combination according to the invention, called the "complete yeast combination" (CYC), consisting of PC+YG+AA.
These synergistic effects appear even more marked when the mice are administered a 900 mg/kg acetaminophen dose, which causes the deaths of 100% of the animals. In this case, only administration of the complete yeast combination, CYC, protects more than 50% of the animals treated against death (see Table 2).
The protection against acetaminophen at the dose of 900 mg/kg afforded by the new composition was even more marked when the animals were treated for 7 consecutive days prior to acetaminophen administration with the various components of the combination (see Table 3).

[7] = test system: glycerol-induced kidney failure; experiment: Activity against glycerol-induced nephropathy; format: in vivo, Male Sprague-Dawley rats; details: for Protective effect against glycerol-induced kidney lesions (in words): rat; for Urea: rat plasma 24 hours after glycerol injection (10 cc/kg of 50% w/v), treated daily three days before
Experimental: The method used in this test was that described by Young (Young J. H. K., Meth. Find. Exp. Clin. Pharmacol., 13:23, 1991). According to this test, a glycerol injection induces kidney failure and nephropathy in the rat. This method was used to assess the protective effects of the combination according to the invention on the kidney. Male Sprague-Dawley rats were used, which, after being deprived of drinking water for 24 hours, were injected with 10 cc/kg of a 50% w/v solution of glycerol and water. After the injection, the animals thus treated were allowed to drink. After 24 hours, blood samples were taken from the animals and, after centrifuging, the plasma creatinine concentration was assayed (according to the method described by Taussky H. H., Clin. Chem. Acta, 1:210, 1956) and urea by means of reaction with diacetylmonoxime (Henry R. Y., Cannon D. C. Eds., Clinical Chemistry, 2 Ed. Harper & Rowe, London 1974). Propionyl L-carnitine (100 mg/kg), glutathione (50 mg/kg) or yeast containing glutathione (500 mg/kg), amino acids (25 mg/kg each), yeast (500 mg/kg) and a combination of these at the same doses were administered daily on the three days preceding the test.

[8] = CCl4-intoxicated liver cell cultures, table at the place of Table 5, printed as a repeat of TABLE 4
[9] = isolated rat liver cells, CCl4 10 mmol.L^-1, 4-h incubation, lactate dehydrogenase release, GSH 20 mg.L^-1, propionyl L-carnitine 100 mg.L^-1, Table 4
[10] = elderly rats (8-10 months), liver, after 15 days' daily administration, Table 9
[11] = elderly rats (8-10 months), liver, before the start of the test, Table 9
[12] = elderly rats, 15 days, table at the place of Table 10, printed as a repeat of TABLE 9
[13] = elderly rats, time 0, table at the place of Table 10, printed as a repeat of TABLE 9
[14] = young rats (2-3 months), liver, after 15 days' daily administration, Table 9
[15] = young rats (2-3 months), liver, before the start of the test, Table 9
[16] = young rats, 15 days, table at the place of Table 10, printed as a repeat of TABLE 9
[17] = young rats, time 0, table at the place of Table 10, printed as a repeat of TABLE 9
[18] = acetaminophen 900 mg/kg, dead/total, Table 2
[19] = acetaminophen 900 mg/kg, dead/total, table at the place of Table 3, printed as a repeat of TABLE 2
[20] = oral acetaminophen 600 mg/kg, substance given at the same time, mortality 24 hours after treatment (dead/total), Table 1

Structure (SMILES)	% dead cells [1, 8] [%]	Toxic effects of carbon tetrachloride (in words) ([1]; isolated rat liver cells)	% dead cells [1, 9] [%]	Glutathione concentration in liver, elderly rats, time 15 days [2, 10] [GSH ng/mg protein]	Glutathione concentration in liver, elderly rats, time 0 [2, 11] [GSH ng/mg protein]	Glutathione concentration in liver, elderly rats, time 15 days [2, 12] [GSH ng/mg protein]	Glutathione concentration in liver, elderly rats, time 0 [2, 13] [GSH ng/mg protein]	Glutathione concentration in liver, young rats, time 15 days [2, 14] [GSH ng/mg protein]	Glutathione concentration in liver, young rats, time 0 [2, 15] [GSH ng/mg protein]	Glutathione concentration in liver, young rats, time 15 days [2, 16] [GSH ng/mg protein]	Glutathione concentration in liver, young rats, time 0 [2, 17] [GSH ng/mg protein]	Triglycerides (liver) [3] [mg/g]	Efficacy on serum triglyceride levels induced by fructose (in words) [4]	Hypertriglyceridaemia (blood triglycerides) [4] [mg/100 ml]	Glutathione (GSH) concentration in plasma [5] [mg/dL]	Protection against the mortality induced by acetaminophen (in words) [6]	Mortality [6, 18]	Mortality [6, 19]	Mortality [6, 20]	Protective effect against glycerol-induced kidney lesions (in words) [7]	other results
N[C@@H](CCC(=O)N[C@@H](CS)C(=O)NCC(=O)O)C(=O)O [G, N-(N-L-L-γ-glutamyl-cysteinyl) glycine]	55 ± 5	capable of reducing the toxic effects of carbon tetrachloride	55 ± 5	9.90 ± 0.76	8.82 ± 0.69	9.90 ± 0.76	8.82 ± 0.69	12.85 ± 0.66	12.1 ± 0.36	12.85 ± 0.66	12.1 ± 0.36	18.7 ± 2.1	small efficacy	180 ± 5.9	0.95 ± 0.88	partial protection	7/10	7/10	4/10	fairly good protective effect	Urea [7]: 79.9 ± 9.9 mg/100 ml
CCC(=O)O[C@H](CC(=O)[O-])C[N+](C)(C)C [PC, Propionyl L-carnitine]	70 ± 7	capable of reducing the toxic effects of carbon tetrachloride	70 ± 7	9.3 ± 0.46	7.9 ± 0.51	9.3 ± 0.46	7.9 ± 0.51	12.90 ± 0.71	11.25 ± 0.41	12.90 ± 0.71	11.25 ± 0.41	20.2 ± 1.9	small efficacy	185 ± 7.1	0.70 ± 0.54	no such protection	10/10	10/10	6/10	fairly good protective effect	Urea [7]: 88.5 ± 11.5 mg/100 ml
